Key:
Type in all cases: in vivo
soybean (Glycine max) = experiment: Test B pre-/postemergence plant response
In short: (§1)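 Preemergence and postemergence (plants 2-18 cm, 1- to 4-leaf stage) applications used test chemicals in a non-phytotoxic solvent with surfactant. Plants were held in a greenhouse 13 to 15 days, then rated visually against controls on a 0-100 scale (0 no effect, 100 complete control).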

[1] = tested on: cocklebur (Xanthium strumarium); experiment: Test B pre-/postemergence plant response
In short: as §1

[2] = tested on: wheat (Triticum aestivum); experiment: Test B pre-/postemergence plant response
In short: as §1

[3] = tested on: pigweed (Amaranthus retroflexus); experiment: Test B pre-/postemergence plant response
In short: as §1

[4] = tested on: downy bromegrass (Bromus tectorum); experiment: Test B pre-/postemergence plant response
In short: as §1

[5] = tested on: large crabgrass (Digitaria sanguinalis); experiment: Test B pre-/postemergence plant response
In short: as §1

[6] = tested on: green foxtail (Setaria viridis); experiment: Test B pre-/postemergence plant response
In short: as §1

[7] = tested on: Russian thistle (Salsola iberica); experiment: Test B pre-/postemergence plant response; conditions: Preemergence; for Russian Thistle plant response rating: scale 0 to 100
In short: as §1

[8] = tested on: common (oilseed) sunflower (Helianthus annuus); experiment: Test B pre-/postemergence plant response; conditions: Preemergence; for Sunflower plant response rating: scale 0 to 100
In short: as §1

[9] = tested on: goosegrass (Eleusine indica); experiment: Test B pre-/postemergence plant response
In short: as §1

[10] = tested on: catchweed bedstraw (Galium aparine); experiment: Test B pre-/postemergence plant response; conditions: Preemergence; for Galium plant response rating: scale 0 to 100
In short: as §1

[11] = tested on: velvetleaf (Abutilon theophrasti); experiment: Test B pre-/postemergence plant response
In short: as §1

[12] = tested on: woolly cupgrass (Eriochloa villosa); experiment: Test B pre-/postemergence plant response
In short: as §1

rice (Oryza sativa) = experiment: Test B flooded paddy test plant response; conditions: Flood (flooded paddy test), scale 0 to 100, 0 no effect, 100 complete control
In short: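 Rice, umbrella sedge, ducksalad and barnyardgrass at 2-leaf stage; pots flooded to 3 cm, compounds applied into paddy water, depth held throughout. Greenhouse 13 to 15 days, then visual rating vs untreated controls on 0–100 scale (0 no effect, 100 complete control); dash means no test result.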

[13] = 8 g ai/ha, postemergence, 0-100 scale
[14] = 16 g ai/ha, postemergence, 0-100 scale
[15] = Postemergence, 31 g ai/ha, scale 0 to 100
[16] = Postemergence, 62 g ai/ha, scale 0 to 100, 0 no effect, 100 complete control
[17] = Preemergence, 31 g ai/ha, scale 0 to 100 (0 no effect, 100 complete control)
[18] = Preemergence, 62 g ai/ha, 0 to 100 scale, 0 no effect, 100 complete control
[19] = Preemergence, 8 g ai/ha, scale 0 to 100
[20] = Preemergence, 16 g ai/ha, scale 0 to 100
[21] = Postemergence, 16 g ai/ha, scale 0 to 100
[22] = 31 g ai/ha, scale 0 to 100 (0 no effect, 100 complete control)
[23] = 62 g ai/ha, 0 to 100 scale, 0 no effect, 100 complete control

CCCc1cc(-c2ccc(Cl)cc2)nn1-c1c(O)cnn(C)c1=O [Compound 76]
Soybean plant response rating (soybean (Glycine max); [13]): 0 | Soybean plant response rating (soybean (Glycine max); [14]): 0 | Plant response rating, Soybean (soybean (Glycine max); [15]): 0 | Plant response rating, Soybean (soybean (Glycine max); [16]): 0 | Plant response rating, Soybean (soybean (Glycine max); [17]): 0 | Plant response rating, Soybean (soybean (Glycine max); [18]): 0 | Soybean plant response rating (soybean (Glycine max); [19]): 0 | Soybean plant response rating (soybean (Glycine max); [20]): 0 | Cocklebur plant response rating [1, 13]: 0 | Plant response rating, Cocklebur [1, 21]: 0 | Plant response rating, Cocklebur [1, 15]: 0 | Plant response rating, Cocklebur [1, 16]: 0 | Plant response rating, Cocklebur [1, 17]: 0 | Plant response rating, Cocklebur [1, 18]: 0 | Cocklebur plant response rating [1, 19]: 0 | Cocklebur plant response rating [1, 20]: 0 | Wheat plant response rating [2, 13]: 10 | Wheat plant response rating [2, 14]: 30 | Plant response rating, Wheat [2, 15]: 30 | Plant response rating, Wheat [2, 16]: 35 | Plant response rating, Wheat [2, 17]: 0 | Plant response rating, Wheat [2, 18]: 0 | Wheat plant response rating [2, 20]: 0 | Pigweed plant response rating [3, 13]: 0 | Pigweed plant response rating [3, 14]: 0 | Plant response rating, Pigweed [3, 15]: 0 | Plant response rating, Pigweed [3, 16]: 0 | Plant response rating, Pigweed [3, 17]: 0 | Plant response rating, Pigweed [3, 18]: 0 | Pigweed plant response rating [3, 19]: 0 | Pigweed plant response rating [3, 20]: 0 | Bromegrass, Downy plant response rating [4, 13]: 0 | Plant response rating, Bromegrass, Downy [4, 21]: 0 | Plant response rating, Bromegrass, Downy [4, 15]: 0 | Plant response rating, Bromegrass, Downy [4, 16]: 20 | Plant response rating, Bromegrass, Downy [4, 17]: 0 | Plant response rating, Bromegrass, Downy [4, 18]: 0 | Bromegrass, Downy plant response rating [4, 19]: 0 | Bromegrass, Downy plant response rating [4, 20]: 0 | Crabgrass, Large plant response rating [5, 13]: 20 | Plant response rating, Crabgrass, Large [5, 21]: 85 | Plant response rating, Crabgrass, Large [5, 15]: 95 | Plant response rating, Crabgrass, Large [5, 16]: 100 | Plant response rating, Crabgrass, Large [5, 17]: 55 | Plant response rating, Crabgrass, Large [5, 18]: 98 | Crabgrass, Large plant response rating [5, 19]: 0 | Crabgrass, Large plant response rating [5, 20]: 20 | Foxtail, Green plant response rating [6, 13]: 65 | Plant response rating, Foxtail, Green [6, 21]: 85 | Plant response rating, Foxtail, Green [6, 15]: 95 | Plant response rating, Foxtail, Green [6, 16]: 100 | Plant response rating, Foxtail, Green [6, 17]: 90 | Plant response rating, Foxtail, Green [6, 18]: 90 | Foxtail, Green plant response rating [6, 19]: 40 | Foxtail, Green plant response rating [6, 20]: 65 | Plant response rating, Russian Thistle [7, 22]: 0 | Plant response rating, Russian Thistle [7, 23]: 0 | Russian Thistle plant response rating ([7]; 8 g ai/ha): 0 | Russian Thistle plant response rating ([7]; 16 g ai/ha): 0 | Plant response rating, Sunflower [8, 22]: 0 | Plant response rating, Sunflower [8, 23]: 0 | Sunflower plant response rating ([8]; 8 g ai/ha): 0 | Sunflower plant response rating ([8]; 16 g ai/ha): 0 | Goosegrass plant response rating [9, 13]: 20 | Goosegrass plant response rating [9, 14]: 60 | Plant response rating, Goosegrass [9, 15]: 70 | Plant response rating, Goosegrass [9, 16]: 75 | Plant response rating, Goosegrass [9, 17]: 80 | Plant response rating, Goosegrass [9, 18]: 100 | Goosegrass plant response rating [9, 19]: 20 | Goosegrass plant response rating [9, 20]: 75 | Plant response rating, Galium [10, 22]: 0 | Plant response rating, Galium [10, 23]: 0 | Galium plant response rating ([10]; 8 g ai/ha): 0 | Galium plant response rating ([10]; 16 g ai/ha): 0 | Velvetleaf plant response rating [11, 13]: 0 | Velvetleaf plant response rating [11, 14]: 0 | Plant response rating, Velvetleaf [11, 15]: 0 | Plant response rating, Velvetleaf [11, 16]: 0 | Plant response rating, Velvetleaf [11, 17]: 0 | Plant response rating, Velvetleaf [11, 18]: 0 | Velvetleaf plant response rating [11, 19]: 0 | Velvetleaf plant response rating [11, 20]: 0 | Cupgrass, Woolly plant response rating [12, 13]: 60 | Plant response rating, Cupgrass, Woolly [12, 21]: 65 | Plant response rating, Cupgrass, Woolly [12, 15]: 85 | Plant response rating, Cupgrass, Woolly [12, 16]: 90 | Plant response rating, Cupgrass, Woolly [12, 17]: 90 | Plant response rating, Cupgrass, Woolly [12, 18]: 98 | Cupgrass, Woolly plant response rating [12, 19]: 55 | Cupgrass, Woolly plant response rating [12, 20]: 75 | Plant response rating, Rice (rice (Oryza sativa); 62 g ai/ha): 0 | Plant response rating, Rice (rice (Oryza sativa); 250 g ai/ha): 0
